In patent US9526713B2, “Use of dencichine in preparation of drug for treating thrombocytopenia” (KUNMING SHENGHUO PHARMACEUTICAL (GROUP) CO., LTD., priority 2013, dated 2016):
Where two headings read alike, the source gives them in different places.

How the values were obtained:
[1] = tested on: rabbits; experiment: Influence of Dencichine for injection on the platelet count of rabbits (single-dose injection); assay type: in vivo, rabbit
[2] = tested on: rats with thrombocytopenia caused by carboplatin; experiment: Platelet count of rats with thrombocytopenia caused by carboplatin, different prophylactic administration time; assay type: in vivo, rat
[3] = tested on: ITP model mice; assay type: in vivo, BALB/C mice; conditions: 14 days
Source text: (§1) Health BALB/C mice (body weight 18˜22 g) are randomly divided into six groups with 12 mice for each group:
Blank group, Model group, Prednisone Acetate Group, Dencichine (high dose, middle dose, and low dose) groups.
Modeling method: blood was taken from orbital vein of BALB/C Mice, followed by EDTA-Na2 Anticoagulation, and then platelets are separated and washed. The prepared platelet suspension solution was mixed uniformly with equal amount of complete Freund's adjuvant and incomplete Freund's adjuvant respectively. In the first week, antigen containing complete Freund's adjuvant is subcutaneously injected into hind paw, back and groin of the guinea pig. Injections are done for 4 times in total, with 5 spots for each injection and 100 μl for each spot. In the 6th week, non-anticoagulated whole blood was taken from the guinea pigs, and was centrifuged for 10 min under 3000 r/min to produce a supernate, which is the anti-mouse platelet serum (GP-APS) of the guinea pigs. The supernate was placed in a water bath (56° C.) for 30 min for complement inactivation, and then the inactivated supernate was diluted with normal saline, followed by test of antibody titers by agar diffusion method, and finally was stored in a refrigerator at −20° C. for later use.
(§2) Except the normal group, the mice of the remain five groups are injected with anti-mouse platelet serum (APS) of the guinea pig with a dose of 100 μl/20 g body weight, via intraperitoneal injection, on the 1st, 3rd, 5th, 7th, 9th, 11th and 13th day of the experiment.
The mice of each group are given intragastric administration from the first day. […] The mice of the prednisone acetate group are given intragastric administration of suspension of prednisone acetate at 5 mg/(kg·d). The mice of other groups are given intragastric administration of same volumetric of normal saline at 0.2 ml/20 g body weight. Intragastric administration for once each day, and continuous administration for 14 days.
Observation of the Subcutaneous Purpura:
Class I, minor bleeding are found at injection sites, and hemorrhagic spots are interspersed at other sites;
Class II, overt bleeding are found at injection sites, and ecchymosis and petechiae are found at other sites;

[4] = tested on: ITP model mice; assay type: in vivo, BALB/C mice
Procedure: as §1, §2
The mice of each group are given intragastric administration from the first day. The mice of the dencichine high dose, middle-dose and low dose groups are given intragastric administration at […] respectively. The mice of the prednisone acetate group are given intragastric administration of suspension of prednisone acetate at 5 mg/(kg·d). The mice of other groups are given intragastric administration of same volumetric of normal saline at 0.2 ml/20 g body weight. Intragastric administration for once each day, and continuous administration for 14 days.
20 μl Blood was collected from orbital veins of each mouse of each group before Modeling and on 14th test day respectively, and dropped into anticoagulative tubes, then platelet count was detected by an automated blood analyzers.

[5] = tested on: female mouse; conditions: cited from earlier work
[6] = high dose group (6 mg/kg per Table 8) intragastric
[7] = low dose group (1.5 mg/kg per Table 8) intragastric
[8] = middle dose group (3 mg/kg) intragastric

Structure (SMILES): N[C@@H](CNC(=O)C(=O)O)C(=O)O [Dencichine, β-N-oxalyl-L-α, β-diaminopropionic acid]
- PLT ([1]; 0.04 mg/kg, 0 min): 523.3 ± 78.5 ×10^9/L
- PLT ([1]; 0.04 mg/kg, 30 min): 451.0 ± 144.5 ×10^9/L
- PLT ([1]; 0.04 mg/kg, 60 min): 504.0 ± 87.8 ×10^9/L
- PLT ([1]; 0.20 mg/kg, 0 min): 574.0 ± 64.3 ×10^9/L
- PLT ([1]; 0.20 mg/kg, 30 min): 502.3 ± 60.8 ×10^9/L
- PLT ([1]; 0.20 mg/kg, 60 min): 518.2 ± 128.5 ×10^9/L
- PLT ([1]; 1.00 mg/kg, 0 min): 491.2 ± 163.1 ×10^9/L
- PLT ([1]; 1.00 mg/kg, 30 min): 526.5 ± 143.8 ×10^9/L
- PLT ([1]; 1.00 mg/kg, 60 min): 541.0 ± 121.6 ×10^9/L
- change on the platelet count of rabbits ([1]; single-dose injection, various doses): no obvious change
- platelet count compared with that of model group ([2]; prophylactic administration for 3 days): no significant difference
- platelet count ([2]; prophylactic administration for 3 days, after prophylactic administration): 656.3 ± 67.35 ×10^9/L
- platelet count ([2]; prophylactic administration for 3 days, initial value): 717.5 ± 276.94 ×10^9/L
- platelet count ([2]; prophylactic administration for 3 days, injection of carboplatin for 10 days): 110.2 ± 40.43 ×10^9/L
- platelet count compared with that of model group ([2]; prophylactic administration for 5 days and 7 days): increase the platelet count
- platelet count ([2]; prophylactic administration for 5 days, after prophylactic administration): 773.2 ± 142.02 ×10^9/L
- platelet count ([2]; prophylactic administration for 5 days, initial value): 736.2 ± 182.37 ×10^9/L
- platelet count ([2]; prophylactic administration for 5 days, injection of carboplatin for 10 days): 176.2 ± 28.34 ×10^9/L
- platelet count ([2]; prophylactic administration for 7 days, after prophylactic administration): 772.8 ± 70.63 ×10^9/L
- platelet count ([2]; prophylactic administration for 7 days, initial value): 743.7 ± 226.92 ×10^9/L
- platelet count ([2]; prophylactic administration for 7 days, injection of carboplatin for 10 days): 166.2 ± 18.20 ×10^9/L
- Subcutaneous purpura, bleeding degree + [3, 6]: 6 number of mice
- Subcutaneous purpura, bleeding degree ++ [3, 6]: 2 number of mice
- Subcutaneous purpura, bleeding degree +++ [3, 6]: 0 number of mice
- Subcutaneous purpura, bleeding degree − [3, 6]: 0 number of mice
- Subcutaneous purpura, bleeding degree + [3, 7]: 4 number of mice
- Subcutaneous purpura, bleeding degree ++ [3, 7]: 4 number of mice
- Subcutaneous purpura, bleeding degree +++ [3, 7]: 0 number of mice
- Subcutaneous purpura, bleeding degree − [3, 7]: 0 number of mice
- Subcutaneous purpura, bleeding degree + [3, 8]: 5 number of mice
- Subcutaneous purpura, bleeding degree ++ [3, 8]: 3 number of mice
- Subcutaneous purpura, bleeding degree +++ [3, 8]: 0 number of mice
- Subcutaneous purpura, bleeding degree − [3, 8]: 0 number of mice
- platelet count ([4]; high dose 6 mg/kg intragastric, Before Modeling): 751.4 ± 114.3 ×10^9/L
- platelet count ([4]; high dose 6 mg/kg intragastric, Day 14): 542.1 ± 95.4 ×10^9/L
- platelet count ([4]; low dose 1.5 mg/kg intragastric, Before Modeling): 745.1 ± 139.6 ×10^9/L
- platelet count ([4]; low dose 1.5 mg/kg intragastric, Day 14): 428.2 ± 75.1 ×10^9/L
- platelet count ([4]; middle dose 3 mg/kg intragastric, Before Modeling): 749.2 ± 147.5 ×10^9/L
- platelet count ([4]; middle dose 3 mg/kg intragastric, Day 14): 484.8 ± 78.4 ×10^9/L
- increase of the platelet count ([5]; 1 mg in 0.5 ml Ringer-Locke solution, injected into abdominal cavity of a female mouse): 30%
- effect on the hemostasis and increase of platelet count ([5]; Zhao Guoqiang et al., 1984): significant effect
